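48-hour exposure; five concentrations; linearly interpolated endpoints. Here, GI50 denotes the concentration required for 50% inhibition of growth.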 Activity calls are given as the source filed them. No stated cut-off is given here; in the data, active = GI50 up to about 1.1 µM and inactive = higher.
Columns and labels:
Experiment in all cases: NCI-60 cell line screen, 48 h
[1] = test system: T47D
[2] = test system: TK-10
[3] = test system: UACC-62
[4] = test system: HCT-15
[5] = test system: SK-OV-3
[6] = test system: K562
[7] = test system: PC-3
[8] = test system: SF-539
[9] = test system: A498
[10] = test system: UO-31
[11] = test system: EKVX
[12] = test system: HCT-116
[13] = test system: UACC-257
[14] = test system: SN12C
[15] = test system: ACHN
[16] = test system: SW-620
[17] = test system: KM12
[18] = test system: CCRF-CEM
[19] = test system: RXF 393
[20] = test system: RPMI-8226
[21] = test system: HOP-92
[22] = test system: OVCAR-8
[23] = test system: OVCAR-5
[24] = test system: OVCAR-3
[25] = test system: MDA-MB-231
[26] = test system: Malme-3M
[27] = test system: HOP-62
[28] = test system: MDA-N
[29] = test system: 786-0
[30] = test system: NCI-H460
[31] = test system: NCI-H226
[32] = test system: COLO 205
[33] = test system: MOLT-4
[34] = test system: NCI-H23
[35] = test system: SK-MEL-2
[36] = test system: SR
[37] = test system: NCI/ADR-RES
[38] = test system: LOX IMVI
[39] = test system: NCI-H522
[40] = test system: CAKI-1
[41] = test system: SNB-75
[42] = test system: BT-549
[43] = test system: HL-60
[44] = test system: SK-MEL-5
[45] = test system: MDA-MB-435
[46] = test system: A549
[47] = test system: SK-MEL-28
[48] = test system: Hs-578T
[49] = test system: SF-295
[50] = test system: SF-268
[51] = test system: HCC 2998
[52] = test system: M14
[53] = test system: U-251
[54] = test system: MCF7
[55] = test system: OVCAR-4
[56] = test system: DU-145
[57] = test system: HT-29
[58] = test system: IGROV-1
[59] = test system: SNB-19

O=C1CC[N+]2=Cc3ccccc3O[B-]2(c2ccccc2)O1 (stereo not drawn)
GI50 [1]: > 100 µM (inactive)
GI50 [2]: > 100 µM (inactive)
GI50 [3]: > 100 µM (inactive)
GI50 [4]: > 100 µM
GI50 [5]: > 100 µM (inactive)
GI50 [6]: > 100 µM (inactive)
GI50 [7]: > 100 µM (inactive)
GI50 [8]: > 100 µM (inactive)
GI50 [9]: > 100 µM (inactive)
GI50 [10]: > 100 µM (inactive)
GI50 [11]: > 100 µM (inactive)
GI50 [12]: > 100 µM (inactive)
GI50 [13]: > 100 µM (inactive)
GI50 [14]: > 100 µM (inactive)
GI50 [15]: > 100 µM (inactive)
GI50 [16]: > 100 µM (inactive)
GI50 [17]: > 100 µM (inactive)
GI50 [18]: > 100 µM (inactive)
GI50 [19]: > 100 µM (inactive)
GI50 [20]: > 100 µM (inactive)
GI50 [21]: 21.5 µM (inactive)
GI50 [22]: > 100 µM (inactive)
GI50 [23]: > 100 µM (inactive)
GI50 [24]: > 100 µM (inactive)
GI50 [25]: > 100 µM (inactive)
GI50 [26]: > 100 µM (inactive)
GI50 [27]: > 100 µM (inactive)
GI50 [28]: > 100 µM (inactive)
GI50 [29]: > 100 µM (inactive)
GI50 [30]: > 100 µM (inactive)
GI50 [31]: > 100 µM (inactive)
GI50 [32]: > 100 µM (inactive)
GI50 [33]: > 100 µM (inactive)
GI50 [34]: > 100 µM (inactive)
GI50 [35]: > 100 µM (inactive)
GI50 [36]: > 100 µM (inactive)
GI50 [37]: > 100 µM (inactive)
GI50 [38]: > 100 µM (inactive)
GI50 [39]: > 100 µM (inactive)
GI50 [40]: > 100 µM (inactive)
GI50 [41]: 67.1 µM (inactive)
GI50 [42]: > 100 µM (inactive)
GI50 [43]: 89.9 µM (inactive)
GI50 [44]: 97.7 µM (inactive)
GI50 [45]: > 100 µM (inactive)
GI50 [46]: > 100 µM (inactive)
GI50 [47]: > 100 µM (inactive)
GI50 [48]: > 100 µM (inactive)
GI50 [49]: > 100 µM (inactive)
GI50 [50]: > 100 µM (inactive)
GI50 [51]: > 100 µM (inactive)
GI50 [52]: > 100 µM (inactive)
GI50 [53]: > 100 µM (inactive)
GI50 [54]: > 100 µM (inactive)
GI50 [55]: > 100 µM (inactive)
GI50 [56]: > 100 µM (inactive)
GI50 [57]: > 100 µM (inactive)
GI50 [58]: > 100 µM (inactive)
GI50 [59]: > 100 µM (inactive)

CCCCCc1c(CCCC)c(=O)[nH]c2cc(CNCC(OC)OC)ccc12
GI50 [1]: 15.5 µM (inactive)
GI50 [2]: 15 µM (inactive)
GI50 [3]: 5.85 µM (inactive)
GI50 [4]: 9.53 µM
GI50 [5]: 18.1 µM (inactive)
GI50 [6]: 1.9 µM (inactive)
GI50 [7]: 12.2 µM (inactive)
GI50 [8]: 14.8 µM (inactive)
GI50 [9]: 15.1 µM (inactive)
GI50 [10]: 13.2 µM (inactive)
GI50 [11]: 16.2 µM (inactive)
GI50 [12]: 7.11 µM (inactive)
GI50 [13]: 4.92 µM (inactive)
GI50 [14]: 14.2 µM (inactive)
GI50 [15]: 14.4 µM (inactive)
GI50 [16]: 5.79 µM (inactive)
GI50 [17]: 11.7 µM (inactive)
GI50 [18]: 4.05 µM (inactive)
GI50 [19]: 12 µM (inactive)
GI50 [20]: 4.08 µM (inactive)
GI50 [21]: 7.41 µM (inactive)
GI50 [22]: 16.3 µM (inactive)
GI50 [23]: 14.2 µM (inactive)
GI50 [24]: 17.3 µM (inactive)
GI50 [25]: 15.2 µM (inactive)
GI50 [26]: 2.83 µM (inactive)
GI50 [27]: 18.2 µM (inactive)
GI50 [28]: 11.7 µM (inactive)
GI50 [29]: 4.47 µM (inactive)
GI50 [30]: 10.5 µM (inactive)
GI50 [31]: 20.6 µM (inactive)
GI50 [32]: 2.41 µM (inactive)
GI50 [33]: 5.33 µM (inactive)
GI50 [34]: 17.4 µM (inactive)
GI50 [35]: 11.7 µM (inactive)
GI50 [36]: 6.9 µM (inactive)
GI50 [37]: 12.4 µM (inactive)
GI50 [38]: 6.01 µM (inactive)
GI50 [39]: 17.6 µM (inactive)
GI50 [40]: 10.9 µM (inactive)
GI50 [41]: 15.6 µM (inactive)
GI50 [42]: 14.8 µM (inactive)
GI50 [43]: 6 µM (inactive)
GI50 [44]: 8.77 µM (inactive)
GI50 [45]: 11.4 µM (inactive)
GI50 [46]: 12.6 µM (inactive)
GI50 [47]: 5.71 µM (inactive)
GI50 [48]: 18.5 µM (inactive)
GI50 [49]: 17.2 µM (inactive)
GI50 [50]: 16.7 µM (inactive)
GI50 [51]: 3.24 µM (inactive)
GI50 [52]: 2.81 µM (inactive)
GI50 [53]: 10.8 µM (inactive)
GI50 [54]: 12.9 µM (inactive)
GI50 [55]: 14.7 µM (inactive)
GI50 [56]: 14.6 µM (inactive)
GI50 [57]: 3.91 µM (inactive)
GI50 [58]: 14.9 µM (inactive)
GI50 [59]: 12.8 µM (inactive)

From ChEMBL document CHEMBL1201862, “PubChem BioAssay data set” (2004)
